Laboratory results from patent US20170008888A1 (KYORIN PHARMACEUTICAL CO., LTD., priority 2014, published 2017).

What was measured:
Assay type in all cases: binding
[1] = system: AMPKa1 or AMPKa2; assay: Probe-based (AX9989) kinase profiling in Jurkat lysate: AMPKa1 or AMPKa2; settings: screening concentration 1.0 μM
Experimental: (§1) In this example, potency of the compounds as ERK5 inhibitors was assessed, and the compounds were screened for activity against several kinases in Jurkat cells.
(§2) Jurkat cell pellets were resuspended in four volumes of lysis buffer (50 mM HEPES pH 7.5, 150 mM NaCl, 0.1% Triton-X-100, 1% v/v phosphatase, inhibitor cocktail II [EMD/Calbiochem, #524625]), sonicated using a tip, sonicator, and Dounce homogenized. Lysate was cleared by centrifugation, at 16,000 g for 15 min., was gel filtered (BioRad 10DG) and MnCl2 was then added to a final concentration of 20 mM before treatment with the test compound and probe labeling. […] All compound treatments were performed at room temperature.
(§3) Acyl phosphate ATP probe (AX9989) labeling reactions were performed at room temperature with a final probe concentration of 5 μM after a 15 min pre-incubation of lysate with a test compound. All reactions were performed in duplicate, using 445 μl/sample at 5 mg/ml. Probe-labeled lysates were denatured and reduced (6 M urea, 10 mM DTT, 65° C., 15 min), alkylated (40 mM iodoacetamide, 37° C., 30 min, and gel filtered (Sephadex G25) into 10 mM ammonium bicarbonate, 2 M urea, 5 mM methionine. The desalted protein mixture was digested with trypsin (0.015 mg/ml) for 1 hr at 37° C., and desthiobiotinylated peptides were captured using a […] high-capacity streptavidin resin (Thermo Scientific). Captured peptides were then washed extensively using 150 μl/wash with three different wash buffers: (A) 3 times with 1% triton, 0.5% tergitol, 1 mM EDTA in PBS; (B) 18 times with PBS; and (C) 8 times with HPLC grade water. Peptides were eluted from the streptavidin beads using two 35-μL washes of a 50% CH3CN/water mixture containing 0.1% TFA at room temperature.
(§4) Kinase active site peptides were identified and quantified using LC/MS. Percent inhibition was calculated as the normalized decrease in the ESI-MS fragment intensities of probe-labeled peptides in samples incubated with the test compound compared to those without.

[2] = system: ABL or ARG; assay: Probe-based (AX9989) kinase profiling in Jurkat lysate: ABL or ARG; settings: screening concentration 1.0 μM
Experimental: as §1, §2, §3, §4

[3] = target: T1, ACK (Homo sapiens, UniProt Q07912); assay: Probe-based (AX9989) kinase profiling in Jurkat lysate: ACK; settings: screening concentration 1.0 μM; read-out: Kinase inhibition % at indicated screening concentration: ACK
T1 construct: screened for activity against several kinases in Jurkat cells; endogenous in cells; host or cells: Jurkat cell lysate
T1 sequence (Q07912 whole entry): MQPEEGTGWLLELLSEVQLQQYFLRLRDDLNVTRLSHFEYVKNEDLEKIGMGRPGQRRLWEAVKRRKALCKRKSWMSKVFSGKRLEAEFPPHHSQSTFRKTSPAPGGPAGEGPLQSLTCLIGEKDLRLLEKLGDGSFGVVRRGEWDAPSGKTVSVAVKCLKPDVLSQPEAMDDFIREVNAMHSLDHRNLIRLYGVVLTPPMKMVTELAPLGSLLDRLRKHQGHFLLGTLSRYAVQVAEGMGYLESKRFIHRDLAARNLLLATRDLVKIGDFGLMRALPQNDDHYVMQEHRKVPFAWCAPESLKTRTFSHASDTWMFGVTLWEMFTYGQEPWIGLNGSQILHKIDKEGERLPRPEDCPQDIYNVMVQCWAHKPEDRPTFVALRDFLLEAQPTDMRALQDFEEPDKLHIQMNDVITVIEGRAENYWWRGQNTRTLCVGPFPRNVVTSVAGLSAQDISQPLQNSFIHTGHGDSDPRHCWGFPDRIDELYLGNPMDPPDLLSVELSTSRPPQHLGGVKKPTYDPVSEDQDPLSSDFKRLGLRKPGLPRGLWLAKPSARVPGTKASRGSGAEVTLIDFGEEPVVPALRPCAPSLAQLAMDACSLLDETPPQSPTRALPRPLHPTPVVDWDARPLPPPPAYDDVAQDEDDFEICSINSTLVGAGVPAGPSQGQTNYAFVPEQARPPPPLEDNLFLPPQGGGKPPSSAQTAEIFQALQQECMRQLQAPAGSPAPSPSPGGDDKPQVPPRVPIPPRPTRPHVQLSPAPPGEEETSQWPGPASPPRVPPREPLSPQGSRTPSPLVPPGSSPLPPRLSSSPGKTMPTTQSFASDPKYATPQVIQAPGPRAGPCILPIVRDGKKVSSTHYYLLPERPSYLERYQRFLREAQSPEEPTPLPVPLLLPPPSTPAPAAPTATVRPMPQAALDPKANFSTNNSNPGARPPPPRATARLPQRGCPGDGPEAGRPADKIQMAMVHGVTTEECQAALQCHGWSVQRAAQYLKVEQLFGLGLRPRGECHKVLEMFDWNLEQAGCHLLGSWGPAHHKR
Experimental: as §1, §2, §3, §4

[4] = target: T2, AurA (Homo sapiens, UniProt O14965); assay: Probe-based (AX9989) kinase profiling in Jurkat lysate: AurA; settings: screening concentration 1.0 μM; read-out: Kinase inhibition % at indicated screening concentration: AurA
T2 construct: screened for activity against several kinases in Jurkat cells; endogenous in cells; host or cells: Jurkat cell lysate
T2 sequence (O14965 1-403): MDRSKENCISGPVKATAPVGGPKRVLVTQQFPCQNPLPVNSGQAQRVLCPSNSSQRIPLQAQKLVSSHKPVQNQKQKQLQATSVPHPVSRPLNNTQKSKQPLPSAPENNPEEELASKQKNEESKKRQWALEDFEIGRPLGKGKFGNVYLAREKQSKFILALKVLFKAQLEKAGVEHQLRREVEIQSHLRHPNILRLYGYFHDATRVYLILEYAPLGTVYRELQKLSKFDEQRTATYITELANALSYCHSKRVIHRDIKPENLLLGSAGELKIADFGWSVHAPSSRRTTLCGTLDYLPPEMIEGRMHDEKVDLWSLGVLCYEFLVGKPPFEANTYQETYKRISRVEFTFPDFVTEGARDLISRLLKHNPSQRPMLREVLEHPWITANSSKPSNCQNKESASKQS
Experimental: as §1, §2, §3, §4

[5] = target: T3, ERK5 (Homo sapiens, UniProt Q13164); assay: Probe-based (AX9989 acyl phosphate ATP probe) kinase profiling in Jurkat lysate: ERK5; settings: for IC50: calculated from percent inhibition of AX9989 labeling and the screening concentration, Jurkat lysate; for inhibition at 1 µM: screening concentration 1.0 μM, read-out: Kinase inhibition % at indicated screening concentration: ERK5
T3 construct: screened for activity against several kinases in Jurkat cells; endogenous in cells; host or cells: Jurkat cell lysate
T3 sequence (Q13164 whole entry): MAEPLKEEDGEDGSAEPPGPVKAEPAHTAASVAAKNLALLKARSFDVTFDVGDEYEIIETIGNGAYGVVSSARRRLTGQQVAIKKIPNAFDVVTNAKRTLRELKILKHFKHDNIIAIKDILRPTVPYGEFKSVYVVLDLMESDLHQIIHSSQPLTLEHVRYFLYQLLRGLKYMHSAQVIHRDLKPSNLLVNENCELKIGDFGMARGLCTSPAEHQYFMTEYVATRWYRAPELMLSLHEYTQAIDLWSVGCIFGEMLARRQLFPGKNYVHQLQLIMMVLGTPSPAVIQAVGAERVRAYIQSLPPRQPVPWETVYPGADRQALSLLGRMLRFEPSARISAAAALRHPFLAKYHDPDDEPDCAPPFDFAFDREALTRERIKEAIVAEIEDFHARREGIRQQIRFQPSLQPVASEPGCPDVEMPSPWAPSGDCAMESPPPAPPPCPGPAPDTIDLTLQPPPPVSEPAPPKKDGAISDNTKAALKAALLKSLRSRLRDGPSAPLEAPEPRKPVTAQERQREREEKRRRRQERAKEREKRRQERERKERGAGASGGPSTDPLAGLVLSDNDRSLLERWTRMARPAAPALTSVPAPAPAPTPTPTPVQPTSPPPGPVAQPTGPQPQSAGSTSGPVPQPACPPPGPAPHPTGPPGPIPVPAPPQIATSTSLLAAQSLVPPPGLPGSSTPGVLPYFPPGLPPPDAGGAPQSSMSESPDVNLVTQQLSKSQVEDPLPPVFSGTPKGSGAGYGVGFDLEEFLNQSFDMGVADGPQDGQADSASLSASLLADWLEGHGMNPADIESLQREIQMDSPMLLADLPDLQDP
Experimental: as §1, §2, §3, §4
ERK5 IC50 values were calculated from the percent inhibition and the screening concentration.

[6] = system: AurB or AurC; assay: Probe-based (AX9989) kinase profiling in Jurkat lysate: AurB or AurC; settings: screening concentration 1.0 μM
Experimental: as §1, §2, §3, §4

[7] = target: T4, JAK1 (Homo sapiens, UniProt P23458); assay: Probe-based (AX9989) kinase profiling in Jurkat lysate: JAK1; settings: screening concentration 1.0 μM; read-out: Kinase inhibition % at indicated screening concentration: JAK1
T4 construct: screened for activity against several kinases in Jurkat cells; endogenous in cells; host or cells: Jurkat cell lysate
T4 sequence (P23458 whole entry): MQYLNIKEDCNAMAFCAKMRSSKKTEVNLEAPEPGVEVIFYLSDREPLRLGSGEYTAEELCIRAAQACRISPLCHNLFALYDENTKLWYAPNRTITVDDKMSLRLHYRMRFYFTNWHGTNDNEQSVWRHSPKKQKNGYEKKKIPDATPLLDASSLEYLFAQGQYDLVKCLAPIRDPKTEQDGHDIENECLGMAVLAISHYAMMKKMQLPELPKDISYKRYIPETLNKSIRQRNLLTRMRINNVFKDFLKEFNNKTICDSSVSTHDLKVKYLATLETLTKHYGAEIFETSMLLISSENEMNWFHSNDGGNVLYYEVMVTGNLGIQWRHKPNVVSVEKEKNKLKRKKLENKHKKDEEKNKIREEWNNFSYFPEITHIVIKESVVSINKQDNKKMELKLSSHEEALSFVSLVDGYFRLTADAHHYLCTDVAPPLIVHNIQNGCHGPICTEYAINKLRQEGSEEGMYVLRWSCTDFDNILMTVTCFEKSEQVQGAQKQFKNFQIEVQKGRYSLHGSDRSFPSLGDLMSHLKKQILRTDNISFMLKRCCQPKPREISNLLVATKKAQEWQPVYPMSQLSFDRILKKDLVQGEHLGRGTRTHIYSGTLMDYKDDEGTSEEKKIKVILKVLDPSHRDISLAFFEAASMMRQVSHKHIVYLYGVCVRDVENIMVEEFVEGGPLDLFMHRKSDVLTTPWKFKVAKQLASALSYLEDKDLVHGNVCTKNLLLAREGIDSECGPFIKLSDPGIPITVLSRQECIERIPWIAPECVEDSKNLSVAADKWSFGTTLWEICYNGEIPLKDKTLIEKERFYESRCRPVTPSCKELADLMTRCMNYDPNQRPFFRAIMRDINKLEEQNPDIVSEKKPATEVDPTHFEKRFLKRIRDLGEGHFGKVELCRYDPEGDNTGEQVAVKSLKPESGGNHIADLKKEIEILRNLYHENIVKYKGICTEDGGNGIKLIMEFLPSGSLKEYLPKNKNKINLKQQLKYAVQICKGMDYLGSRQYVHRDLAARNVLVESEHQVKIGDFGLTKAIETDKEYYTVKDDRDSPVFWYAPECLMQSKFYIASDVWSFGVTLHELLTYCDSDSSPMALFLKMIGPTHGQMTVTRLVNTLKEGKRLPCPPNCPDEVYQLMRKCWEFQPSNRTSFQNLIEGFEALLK
Experimental: as §1, §2, §3, §4

[8] = target: T5, TAO2 (Homo sapiens, UniProt Q9UL54); assay: Probe-based (AX9989) kinase profiling in Jurkat lysate: TAO2; settings: screening concentration 1.0 μM; read-out: Kinase inhibition % at indicated screening concentration: TAO2
T5 construct: screened for activity against several kinases in Jurkat cells; endogenous in cells; host or cells: Jurkat cell lysate
T5 sequence (Q9UL54 1-1235): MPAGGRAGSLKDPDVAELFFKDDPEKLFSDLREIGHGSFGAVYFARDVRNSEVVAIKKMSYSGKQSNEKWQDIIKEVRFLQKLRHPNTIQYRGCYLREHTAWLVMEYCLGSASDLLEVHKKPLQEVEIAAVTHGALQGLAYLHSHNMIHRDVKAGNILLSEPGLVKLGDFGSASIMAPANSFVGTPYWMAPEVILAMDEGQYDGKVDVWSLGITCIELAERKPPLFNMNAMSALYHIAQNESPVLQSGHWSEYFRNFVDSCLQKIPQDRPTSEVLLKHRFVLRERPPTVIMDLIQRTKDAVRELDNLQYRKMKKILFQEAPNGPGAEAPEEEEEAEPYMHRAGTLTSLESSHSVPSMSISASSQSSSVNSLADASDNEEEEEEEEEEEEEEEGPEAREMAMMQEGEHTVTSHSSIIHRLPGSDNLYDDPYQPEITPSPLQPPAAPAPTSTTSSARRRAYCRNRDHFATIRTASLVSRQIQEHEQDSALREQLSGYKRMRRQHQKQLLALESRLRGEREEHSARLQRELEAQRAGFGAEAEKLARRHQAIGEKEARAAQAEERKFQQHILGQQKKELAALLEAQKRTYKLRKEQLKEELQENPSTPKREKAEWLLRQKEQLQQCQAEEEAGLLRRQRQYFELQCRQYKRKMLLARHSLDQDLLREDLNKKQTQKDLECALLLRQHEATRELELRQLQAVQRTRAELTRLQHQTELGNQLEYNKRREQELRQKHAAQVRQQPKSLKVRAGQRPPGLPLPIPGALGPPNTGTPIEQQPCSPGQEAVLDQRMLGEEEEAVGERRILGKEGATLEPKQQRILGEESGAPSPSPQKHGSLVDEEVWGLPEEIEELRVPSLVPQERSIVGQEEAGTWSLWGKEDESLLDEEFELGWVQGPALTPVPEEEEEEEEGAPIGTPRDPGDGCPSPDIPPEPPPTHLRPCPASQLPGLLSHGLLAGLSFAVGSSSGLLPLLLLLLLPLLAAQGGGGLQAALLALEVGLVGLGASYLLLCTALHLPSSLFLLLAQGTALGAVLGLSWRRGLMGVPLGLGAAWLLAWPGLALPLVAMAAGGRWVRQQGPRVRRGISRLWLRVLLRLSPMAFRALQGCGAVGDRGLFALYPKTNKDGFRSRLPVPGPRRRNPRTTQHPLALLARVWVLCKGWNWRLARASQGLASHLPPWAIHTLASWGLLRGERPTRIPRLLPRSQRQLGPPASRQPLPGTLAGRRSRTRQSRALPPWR
Experimental: as §1, §2, §3, §4

Kinase inhibition % at indicated screening concentration: AMPKa1 or AMPKa2 [1] | Kinase inhibition % at indicated screening concentration: ABL or ARG [2] | inhibition at 1 µM [3] | inhibition at 1 µM [4] | IC50 [5] | inhibition at 1 µM [5] | Kinase inhibition % at indicated screening concentration: AurB or AurC [6] | inhibition at 1 µM [7] | inhibition at 1 µM [8] | SMILES
E (E is ≦35%) | E (E is ≦35%) | ≤ 35% | ≤ 35% | 101 to 500 nM | 75 to 90% | E (E is ≦35%) | ≤ 35% | ≤ 35% | Cc1nn(C)cc1Nc1cc2c(cn1)N(C)C(=O)c1ccccc1N2C [Compound 22]
E (E is ≦35%) | E (E is ≦35%) | ≤ 35% | ≤ 35% | – | > 90% | E (E is ≦35%) | ≤ 35% | ≤ 35% | CCOc1cc(C(=O)N2CCC(N3CCCC3)CC2)ccc1Nc1cc2c(cn1)N(C)C(=O)c1scnc1N2C [Compound 34]
E (E is ≦35%) | E (E is ≦35%) | ≤ 35% | ≤ 35% | > 500 nM | 35 to 50% | E (E is ≦35%) | ≤ 35% | ≤ 35% | COc1ccc(C(=O)O)cc1Nc1cc2c(cn1)N(C)C(=O)c1ccccc1N2C [Compound 36]
E (E is ≦35%) | E (E is ≦35%) | ≤ 35% | ≤ 35% | 101 to 500 nM | 50 to 75% | E (E is ≦35%) | ≤ 35% | ≤ 35% | Cc1cc(O)ccc1Nc1cc2c(cn1)N(C)C(=O)c1ccccc1N2C [Compound 38]
E (E is ≦35%) | E (E is ≦35%) | ≤ 35% | ≤ 35% | > 500 nM | 50 to 75% | E (E is ≦35%) | ≤ 35% | ≤ 35% | Cc1ccccc1Nc1cc2c(cn1)N(C)C(=O)c1ccccc1N2C [Compound 58]
E (E is ≦35%) | E (E is ≦35%) | ≤ 35% | ≤ 35% | 101 to 500 nM | 75 to 90% | E (E is ≦35%) | ≤ 35% | ≤ 35% | CN1C(=O)c2ccccc2N(C)c2cc(N[C@H]3CC[C@H](NC(=O)N4CCCC4)CC3)ncc21 [Compound 60]
E (E is ≦35%) | E (E is ≦35%) | ≤ 35% | ≤ 35% | > 500 nM | ≤ 35% | E (E is ≦35%) | ≤ 35% | ≤ 35% | CN1C(=O)C2CCCCC2N(C)c2cc(NC3CCC(O)CC3)ncc21 (centres unmarked) [Compound 76]
E (E is ≦35%) | E (E is ≦35%) | ≤ 35% | 50 to 75% | 101 to 500 nM | 75 to 90% | B (B is >75% to ≦90%) | ≤ 35% | 35 to 50% | CN(C)CCn1cc(Nc2cc3c(cn2)N(C)C(=O)c2ccccc2N3C)cn1 [Compound 77]
E (E is ≦35%) | E (E is ≦35%) | ≤ 35% | ≤ 35% | > 500 nM | 50 to 75% | E (E is ≦35%) | ≤ 35% | ≤ 35% | COC(=O)[C@H]1CC[C@H](Nc2cc3c(cn2)N(C)C(=O)c2ccccc2N3C)CC1 [Compound 81]
E (E is ≦35%) | E (E is ≦35%) | ≤ 35% | ≤ 35% | > 500 nM | 50 to 75% | E (E is ≦35%) | ≤ 35% | ≤ 35% | CN1C(=O)c2ccccc2N(C)c2cc(Nc3ccccc3Cl)ncc21 [Compound 86]
E (E is ≦35%) | E (E is ≦35%) | ≤ 35% | ≤ 35% | 101 to 500 nM | 50 to 75% | E (E is ≦35%) | ≤ 35% | ≤ 35% | COc1ccc(C(=O)N2CCNCC2)cc1Nc1cc2c(cn1)N(C)C(=O)c1ccccc1N2C [Compound 87]
